{
  "source": "patent US10184115B2",
  "about": "“Mutated cellobiose dehydrogenase with increased substrate specificity” (DIRECTSENS GMBH, priority 2012, dated 2019)",
  "target": "T1, Myriococcum thermophilum cellobiose dehydrogenase (CDH, SEQ ID NO: 1) variant W316L (Thermothelomyces myriococcoides, UniProt A9XK88, W316L)",
  "T1 sequence (A9XK88 22-828 W316L)": "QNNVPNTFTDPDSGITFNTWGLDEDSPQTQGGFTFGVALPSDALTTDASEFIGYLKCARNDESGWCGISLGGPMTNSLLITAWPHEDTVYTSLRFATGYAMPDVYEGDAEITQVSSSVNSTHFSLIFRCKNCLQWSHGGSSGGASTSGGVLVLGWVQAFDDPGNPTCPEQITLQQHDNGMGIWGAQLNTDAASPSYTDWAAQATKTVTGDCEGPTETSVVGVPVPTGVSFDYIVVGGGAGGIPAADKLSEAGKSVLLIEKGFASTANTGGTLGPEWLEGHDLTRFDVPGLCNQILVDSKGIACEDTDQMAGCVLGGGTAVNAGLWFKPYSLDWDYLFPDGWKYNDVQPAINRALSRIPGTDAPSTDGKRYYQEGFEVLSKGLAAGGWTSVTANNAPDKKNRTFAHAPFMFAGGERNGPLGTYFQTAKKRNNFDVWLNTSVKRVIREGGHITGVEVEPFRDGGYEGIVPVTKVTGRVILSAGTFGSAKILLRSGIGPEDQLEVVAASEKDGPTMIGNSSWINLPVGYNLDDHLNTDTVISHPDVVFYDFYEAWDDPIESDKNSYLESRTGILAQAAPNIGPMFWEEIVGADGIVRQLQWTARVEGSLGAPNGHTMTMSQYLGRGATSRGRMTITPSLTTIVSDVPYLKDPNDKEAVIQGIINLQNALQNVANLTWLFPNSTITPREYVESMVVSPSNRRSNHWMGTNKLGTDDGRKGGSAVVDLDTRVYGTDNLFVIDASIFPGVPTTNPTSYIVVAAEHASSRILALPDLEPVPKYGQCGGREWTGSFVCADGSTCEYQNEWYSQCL",
  "test": "Steady-state kinetics, DCIP assay: M. thermophilum CDH W316L",
  "assay_type": "biochemical",
  "details": "apparent, pH 4.5, 30° C.",
  "experimental": "Enzyme activity was assayed at 30° C. using either the DCIP (Karapetyan et al., 2005 Journal of Biotechnology 121: 34-48) or cytochrome c (Canevascini et al., 1991, European Journal of Biochemistry 198: 43-52) as electron acceptor. […] Stock solutions of carbohydrates used for kinetic measurements were prepared in the respective buffer and allowed to stand overnight for mutarotation, while stock solutions of electron acceptors were prepared in water and immediately used. The reaction stoichiometry is 1 for the two-electron acceptor DCIP (1 mole of DCIP reduced per mole of carbohydrate oxidized), but 2 for the one-electron acceptor cytochrome c. Kinetic constants were calculated by fitting the observed data to the Henri-Michaelis-Menten equation or to the adapted model for substrate inhibition using nonlinear least-squares regression and the program SigmaPlot (Systat Software, San Jose, Calif., USA). […]\nRecombinant wild-type CDH as well as variants were produced in 1 L baffled flasks. […] Increase in activity was monitored using the DCIP and the cytochrome c enzyme assays. […]\nThe sample was loaded on a 20 mL PHE Sepharose FF column (HR26/20) equilibrated with 50 mM Na-acetate buffer pH 5.5 containing 20% ammonium sulfate. […] Fractions were tested for CDH activity and pooled according to the highest Reinheitszahl (RZ, calculated from the absorbance ratio 420 nm/280 nm). […]",
  "data": [
    {"smiles": "OC[C@H]1O[C@H](O[C@H]2[C@H](O)[C@@H](O)C(O)O[C@@H]2CO)[C@H](O)[C@@H](O)[C@@H]1O", "note": "(some centres unmarked) [Maltose, maltose]", "values": [
      {"measurement": "kcat/KM", "value": 2.6, "unit": "M⁻¹ s⁻¹"},
      {"measurement": "kcat", "setting": "~ values only estimated by non linear regression", "value": 0.59, "unit": "s⁻¹"}
    ]}
  ]
}
